Measured values as given in article PMC3530200 (Bioorganic & medicinal chemistry letters, 2012).
Numbered stars: 1 amine (or outer) side, 2 acyl side, 3 side chain; on linkers, the order of the positions; unused ones are H or OH. Square brackets hold non-standard residues; d marks the D form. Peptide text beside a SMILES is read from it. X2 = O=C([C@H](Cc1cn(CCCCCCCCc2ccccc2)c2ccccc12)N[*:1])[*:2]; X1 = O=C([C@H](Cc1cn(CCCCCCCCc2ccccc2)cn1)N[*:1])[*:2]; pT = C[C@@H](OP(=O)(O)O)[C@H](N)C(=O)O

Target: Plk1 PBD (Homo sapiens, UniProt P53350)
Experiment: ELISA-based Plk1 PBD-binding inhibition assay

Chain of Plk1 PBD (P53350 whole entry): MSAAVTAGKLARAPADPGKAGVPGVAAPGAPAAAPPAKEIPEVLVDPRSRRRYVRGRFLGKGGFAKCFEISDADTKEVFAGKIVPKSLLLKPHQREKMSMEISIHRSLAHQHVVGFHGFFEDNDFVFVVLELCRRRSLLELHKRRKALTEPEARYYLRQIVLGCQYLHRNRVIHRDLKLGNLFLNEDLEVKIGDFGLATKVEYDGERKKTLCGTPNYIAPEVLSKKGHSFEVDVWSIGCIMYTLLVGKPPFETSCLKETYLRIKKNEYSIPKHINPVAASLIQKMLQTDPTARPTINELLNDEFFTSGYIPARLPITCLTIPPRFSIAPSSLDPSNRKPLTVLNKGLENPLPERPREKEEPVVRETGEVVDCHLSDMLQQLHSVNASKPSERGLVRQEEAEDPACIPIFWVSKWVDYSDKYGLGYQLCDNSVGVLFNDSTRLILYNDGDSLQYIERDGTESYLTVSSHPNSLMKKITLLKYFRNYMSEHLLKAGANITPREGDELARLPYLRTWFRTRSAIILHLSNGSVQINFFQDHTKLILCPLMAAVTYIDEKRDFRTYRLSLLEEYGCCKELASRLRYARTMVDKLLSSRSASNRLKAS

CC(=O)N1CCC[C@H]1C(=O)N[C@@H](CC(C)C)C(=O)N[C@@H](Cc1cn(CCCCCCCCc2ccccc2)cn1)C(=O)N[C@@H](CO)C(=O)N[C@H](C(N)=O)[C@@H](C)OP(=O)(O)O [1c] (Ac-PL[X1]S[pT]-NH2; N-terminus and C-terminus assumed)
fold less affinity than 1b (ratio of IC50 relative to 1b): approximately 50 fold

CC(=O)N1CCC[C@H]1C(=O)N[C@@H](CC(C)C)C(=O)N[C@@H](Cc1cn(CCCCCCCCc2ccccc2)c2ccccc12)C(=O)N[C@@H](CO)C(=O)N[C@H](C(N)=O)[C@@H](C)OP(=O)(O)O [1d] (Ac-PL[X2]S[pT]-NH2; N-terminus and C-terminus assumed)
fold less affinity than 1c (ratio of IC50 relative to 1c): approximately 30 fold

PLHST [reference compound]
affinity of non-phosphorylated control peptide (even at the highest concentration tested (300 μM)): negligible affinity
